Experiment [1] has as its target T1, T-type calcium channels (α1G) (Homo sapiens, UniProt O43497).
T1 construct: expressed in transfected cells
Nature of the experiment: Patch-clamp assay for T-channel blockage in HEK cells. To be noted: time course of T-channel blockage, 500 nM and 1 uM, preliminary numbers. It counts as cell-based. The method, then: Specifically, individual HEK cells were tested in vitro using a patch-clamp assay for T-channel blockage. Tests were performed at concentrations of 500 nM and 1 uM, and the time course of the blockage was followed for a period of several minutes.
In the past, patch clamp assays for T-channel activity would measure inhibition of calcium-ion-mediated current over the course of only a few minutes, e.g., 2, 3, or 5 minutes. […] The assays described herein can be used to differentiate between conventional-type T-channel blockers, which usually show a time constant of blockage of a few seconds, and the long-acting T-channel blockers, which show time constants between 1 minute and 2, 4, 5, 10 or more minutes. It is the latter group of compounds that is particularly interesting and useful in the present invention.
T-type calcium channels (α1G) were stably expressed in HEK293 cells and maintained at 37° C. in DMEM. Cells were released from dishes using trypsin and EGTA or Accutase and studied within 4 hours of isolation. Individual cells were placed on the stage of an inverted microscope and patched with pipettes pulled from aluminasilicate glass capillary tubes, which had resistances of 0.8-1.5 Mohm. Currents were recorded using an Axopatch 200 (Axon Instruments, Inc.) and pClamp data acquisition software (8.1). The pipette solution contained (in mM): KCl 130, EGTA 11, HEPES 10, MgATP 5, pH=7.4. The bath solution contained (in mM): NaCl 140, CaCl2 1, HEPES 10, pH=7.4. Test compounds were diluted into bath solution to the desired concentration (100 nM-10 μM) from a stock solutions (3 or 10 mM in DMSO). Current measurements were made at 20-23° C. Cells were held at −110 mV in order to maximize occupancy in the closed state and depolarized for 100 ms to various potentials. Currents were capacity corrected using 16-64 subthreshold responses (voltage steps of 10 or 20 mV) and leak subtracted, based on linear interpolation between the current at the holding potential and 0 mV. Cells were moved from a control chamber to a chamber with test compound and the effect of the drug was assessed using a voltage clamp protocol that stepped to −30 mV for 100 ms from a holding potential of −110 mV once every 5 s. After each 10-13 minutes, the train protocol was interrupted and a full current voltage relationship obtained. In general for each compound, four cells were studied for a minimum of 13 minutes, two in drug at 500 nM and two at 1 μM. In some cases other concentrations were also studied. Data were analyzed using Matlab (Mathworks, Natick, Mass.). Drug efficacy was estimated using the relationship: Blocked Fraction=[Drug]/(IC50+[Drug])
The time course of block by drug was fit to a single exponential function: Peak Current=A*exp(−t/τ)+B where A is the initial amplitude of the current, B the final level, t the time after the cell was exposed to drug, and τ, the time constant, i.e. the time it took for the current to be reduced to within 1/e of its final value, B. In general, modification τs are influenced both by drug on rate and off rate, although washout was achievable for only one compound, so off rates are so slow (small) that T can be taken to essentially represent 1/kon. For some compounds despite the presence of the drug in the chamber, modification occurred with a delay. This was quantified from the time modification was first observed. […]

In experiment [2] the test system is spontaneously hypertensive rats. The note with it: 30 mg/Kg oral, cited from earlier work.
The test system is the same in experiment [3]. Nature of the experiment: Systolic blood pressure (tail cuff) in spontaneously hypertensive rats after IV tail injection. It counts as in vivo, rat. The note with it: SHR. As for the experimental part: In addition to the referenced in vitro studies, in vivo studies have also been conducted. The in vivo hypertension model used here involves administration of compound to spontaneously hypertensive rats through IV tail injection of compound. Systolic blood pressure is then measured using a tail cuff.
Fifteen male spontaneously hypertensive rats (SHR) were used in these studies. The animals were 12 weeks old at arrival and 15 weeks old at the start of study. The animals were divided into five groups, with three animals in each group. The starting, baseline systolic blood pressure for all animals included in the study was 190-220 mmHg. The animals were housed in contact bedding. They were fed Purina 5008. Six days after arrival, the animals were trained in the blood pressure apparatus for four days before the start of the study.
Compounds were administered to the animals by tail vein injection. Dose levels were 0.5 mL. In each study, one group of animals served as control, while the others were injected with a dosage of a compound.
The study was conducted using the schedule set forth below: […]

Setting [4] is: multiple dose study, three injections spaced about 25 hours apart, FIG. 2.
[5] abbreviates: single dose 20 mg/Kg, IV tail injection, FIG. 1.

T1 sequence (O43497 whole entry): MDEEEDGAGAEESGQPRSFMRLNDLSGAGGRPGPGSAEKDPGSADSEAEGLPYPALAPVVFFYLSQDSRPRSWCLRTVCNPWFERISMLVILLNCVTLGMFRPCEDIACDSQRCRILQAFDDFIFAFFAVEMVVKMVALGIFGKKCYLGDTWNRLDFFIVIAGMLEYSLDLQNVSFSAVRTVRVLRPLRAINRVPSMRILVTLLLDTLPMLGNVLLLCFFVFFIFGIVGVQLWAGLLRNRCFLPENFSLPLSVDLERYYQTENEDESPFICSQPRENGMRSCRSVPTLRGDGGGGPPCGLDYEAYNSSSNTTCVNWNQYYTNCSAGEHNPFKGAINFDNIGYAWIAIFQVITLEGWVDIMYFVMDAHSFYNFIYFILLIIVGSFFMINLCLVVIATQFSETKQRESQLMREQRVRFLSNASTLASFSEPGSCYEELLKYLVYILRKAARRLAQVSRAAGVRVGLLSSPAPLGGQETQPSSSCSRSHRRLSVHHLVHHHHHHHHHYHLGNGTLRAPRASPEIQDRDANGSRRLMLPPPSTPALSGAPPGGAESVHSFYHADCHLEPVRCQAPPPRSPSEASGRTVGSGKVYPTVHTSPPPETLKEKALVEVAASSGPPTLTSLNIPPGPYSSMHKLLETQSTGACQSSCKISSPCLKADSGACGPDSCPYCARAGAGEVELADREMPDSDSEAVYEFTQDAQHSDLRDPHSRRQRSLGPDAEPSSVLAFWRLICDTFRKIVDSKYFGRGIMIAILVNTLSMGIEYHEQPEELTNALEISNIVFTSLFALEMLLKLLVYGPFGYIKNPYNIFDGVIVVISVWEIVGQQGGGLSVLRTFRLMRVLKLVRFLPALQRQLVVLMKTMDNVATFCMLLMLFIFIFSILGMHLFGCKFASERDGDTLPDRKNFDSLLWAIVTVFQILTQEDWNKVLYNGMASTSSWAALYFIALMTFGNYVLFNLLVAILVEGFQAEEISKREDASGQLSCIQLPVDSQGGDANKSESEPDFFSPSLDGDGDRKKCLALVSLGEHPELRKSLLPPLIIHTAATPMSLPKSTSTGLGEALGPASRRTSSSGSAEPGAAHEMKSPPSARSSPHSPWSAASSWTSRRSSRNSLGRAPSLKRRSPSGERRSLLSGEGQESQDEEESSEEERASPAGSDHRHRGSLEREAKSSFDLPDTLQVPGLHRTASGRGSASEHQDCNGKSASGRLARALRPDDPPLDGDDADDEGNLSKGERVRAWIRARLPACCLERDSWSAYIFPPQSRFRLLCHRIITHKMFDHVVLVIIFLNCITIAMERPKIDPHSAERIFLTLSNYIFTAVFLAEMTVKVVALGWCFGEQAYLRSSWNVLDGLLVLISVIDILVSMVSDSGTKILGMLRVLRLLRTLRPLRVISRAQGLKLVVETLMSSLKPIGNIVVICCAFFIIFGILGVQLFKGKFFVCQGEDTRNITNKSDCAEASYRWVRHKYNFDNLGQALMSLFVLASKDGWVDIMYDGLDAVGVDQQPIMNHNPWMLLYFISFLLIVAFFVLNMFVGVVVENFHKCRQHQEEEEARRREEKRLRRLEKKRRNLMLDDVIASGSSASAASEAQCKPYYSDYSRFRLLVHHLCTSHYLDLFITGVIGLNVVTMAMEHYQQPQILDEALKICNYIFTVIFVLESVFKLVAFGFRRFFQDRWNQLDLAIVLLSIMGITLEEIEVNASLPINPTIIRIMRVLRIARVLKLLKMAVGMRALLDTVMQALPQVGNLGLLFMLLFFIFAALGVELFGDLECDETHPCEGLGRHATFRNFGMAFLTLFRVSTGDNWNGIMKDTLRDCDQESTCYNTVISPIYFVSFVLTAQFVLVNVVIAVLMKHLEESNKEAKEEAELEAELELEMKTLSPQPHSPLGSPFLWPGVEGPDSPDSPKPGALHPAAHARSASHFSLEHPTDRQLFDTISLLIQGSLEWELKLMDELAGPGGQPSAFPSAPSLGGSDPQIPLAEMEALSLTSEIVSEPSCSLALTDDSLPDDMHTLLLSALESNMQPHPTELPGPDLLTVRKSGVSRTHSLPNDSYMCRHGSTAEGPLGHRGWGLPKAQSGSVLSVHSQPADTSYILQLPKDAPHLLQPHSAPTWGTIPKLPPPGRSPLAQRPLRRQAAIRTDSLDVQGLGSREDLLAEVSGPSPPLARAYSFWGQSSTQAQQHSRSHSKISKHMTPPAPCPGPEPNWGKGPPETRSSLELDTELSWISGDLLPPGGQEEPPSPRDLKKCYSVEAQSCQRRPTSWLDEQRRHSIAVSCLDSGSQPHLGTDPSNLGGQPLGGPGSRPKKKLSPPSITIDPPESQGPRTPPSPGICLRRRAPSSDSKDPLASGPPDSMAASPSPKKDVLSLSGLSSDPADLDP

Regarding “3,6-dihydro-4-methyl-6-[2-ethoxy-6-pentadecylphenyl]-2-oxo-1,5-(2H)-pyrimidinedicarboxylic acid 1-ethyl 5-isopropyl diester [PPK35]”, the Time constant in experiment [1] was determined as 10 min.

For the compound `COCC(=O)O[C@]1(CCN(C)CCCc2nc3ccccc3[nH]2)CCc2cc(F)ccc2[C@@H]1C(C)C` [Mibefradil], in experiment [2] (FIG. 1), the “systolic blood pressure drop in the first 5 hours” value is recorded as “about 85 mmHg” and the “systolic blood pressure recovery by the end of 24 hours” value is on record as “about 45 mmHg”. Besides, in experiment [2] (FIG. 2), the “rapid drop of blood pressure” value is listed as 85 mmHg and the “recovery of blood pressure within 24 hours of administration” value is “more than 50%”.

`CCCCCCCCCCCCCCCc1cccc(OC(C)C)c1C1C(C(=O)OC)=C(C)NC(C)=C1C(=O)OC` [PPK5, dimethyl 1,4-dihydro-4-(2′-isopropoxy-6′-pentadecylphenyl)-2,6-dimethyl-3,5-pyridine dicarboxylate]: in experiment [3] (setting [4]), the “additional blood pressure drop after the second injection” value is around 12 mmHg and the “blood pressure drop after first injection” value is on record as “about 55 mmHg”. Further, the “time systolic pressure remained at the reduced level” value in experiment [3] (single dose 20 mg/Kg, IV tail injection) was above 24 h. Moreover, in experiment [3] (setting [5]), the “systolic pressure drop in the first 5 hours” value is on record as “about 48 mmHg” and the “systolic pressure drop in the first 10 hours” value is “about 55 mmHg”. For the same compound, in experiment [1], the Time constant is 8 min.

Regarding `CCCCCCCCCCCCCCCc1cccc(OC)c1C1NC(=O)NC(C)=C1C(=O)OCC` (centres unmarked) [PPK22, 5-ethoxycarbonyl-4-(2-methoxy-6-pentadecylphenyl)-6-methyl-3,4-dihydropyrimidin-2(1H)-one], in experiment [1], the Time constant was determined as 1 min.

On to `CCCCCCCCCCCCCCCc1cccc(OCC)c1C1C(C(=O)OCC)=C(C)NC(=S)N1C(=O)CC` (centres unmarked) [PPK50, 1,2,3,4-tetrahydro-6-methyl-4-[2-ethoxy-6-pentadecylphenyl]-3-(1-oxo-propyl)2-thioxo-5-pyrimidine carboxylic acid ethyl ester], for which the Time constant in experiment [1] is 10 min.

Take `CCCCCCCCCCCCCCCc1cccc(OC(C)C)c1C1C(C(=O)OCC)=C(C)NC(=S)N1C(=O)CC` (centres unmarked) [PPK51, 1,2,3,4-tetrahydro-6-methyl-4-[2-isopropoxy-6-pentadecylphenyl]-3-(1-oxo-propyl)2-thioxo-5-pyrimidine carboxylic acid ethyl ester]: the Time constant in experiment [1] was 13 min.
